ChEMBL document CHEMBL4725310, “Orally bioavailable HCV NS5A inhibitors of unsymmetrical structural class” (Bioorg Med Chem Lett, 2020)
Values after ≈ are worked out from the molar mass of the structure shown.

Columns and labels:
[1] = target: T1, Nonstructural protein 5A (Hepatitis C virus, UniProt Q5L478); assay: Inhibition of Hepatitis C virus 1a NS5A; parameters: species or system Hepatitis C virus subtype 1a
T1 sequence (Q5L478 whole entry): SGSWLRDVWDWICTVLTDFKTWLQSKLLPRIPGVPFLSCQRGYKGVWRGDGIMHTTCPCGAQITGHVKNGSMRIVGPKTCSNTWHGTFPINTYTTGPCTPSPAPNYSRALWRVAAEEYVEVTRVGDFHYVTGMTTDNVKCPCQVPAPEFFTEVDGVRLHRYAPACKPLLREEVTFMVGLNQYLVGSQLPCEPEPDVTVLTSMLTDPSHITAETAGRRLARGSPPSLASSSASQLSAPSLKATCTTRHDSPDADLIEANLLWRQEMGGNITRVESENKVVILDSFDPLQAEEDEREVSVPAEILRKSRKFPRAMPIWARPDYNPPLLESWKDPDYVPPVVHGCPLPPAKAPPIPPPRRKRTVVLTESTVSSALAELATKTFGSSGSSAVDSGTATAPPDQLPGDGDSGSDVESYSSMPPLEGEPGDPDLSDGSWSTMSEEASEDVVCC

[2] = target: T1, Nonstructural protein 5A; assay: Inhibition of Hepatitis C virus 1b NS5A; parameters: species or system Hepatitis C virus subtype 1b
[3] = Solubility of compound in JP 1st fluid at pH 1.2; type: physicochemical
[4] = Apparent permeability of compound in human Caco-2 cells; type: ADME, cell-based
[5] = Oral bioavailability in Sprague-Dawley rat at 3 mg/kg; type: ADME, organism-based; details: in vivo
[6] = target: T1, Nonstructural protein 5A; assay: Inhibition of Hepatitis C virus 2a NS5A; parameters: species or system Hepatitis C virus subtype 2a
[7] = target: T1, Nonstructural protein 5A; assay: Inhibition of Hepatitis C virus 3a NS5A; parameters: species or system Hepatitis C virus subtype 3a
[8] = target: T1, Nonstructural protein 5A; assay: Inhibition of Hepatitis C virus 1a NS5A Q30R mutant; parameters: species or system Hepatitis C virus subtype 1a
[9] = Inhibition of Hepatitis C virus 1a NS5A Q30K mutant; parameters: species or system Hepatitis C virus subtype 1a
[10] = target: Nonstructural protein 5A (Hepatitis C virus, UniProt Q5L478, Q30E); assay: Inhibition of Hepatitis C virus 1a NS5A Q30E mutant; parameters: species or system Hepatitis C virus subtype 1a
[11] = target: T1, Nonstructural protein 5A; assay: Inhibition of Hepatitis C virus 1a H77 NS5A; parameters: species or system Hepatitis C virus subtype 1a

Row | SMILES | EC50 [1] [nM] | EC50 [2] [nM] | solubility [3] [µM] | Papp [4] [×10⁻⁶ cm/s] | bioavailability [5] [%] | EC50 [6] [nM] | EC50 [7] [nM] | EC50 [8] [nM] | EC50 [9] [nM] | EC50 [10] [nM] | EC50 [11] [nM]
1 | CC#CCOC(=O)N[C@@H]1CCN(C(=O)N[C@@H](C(=O)N2CCC[C@H]2c2nc(-c3ccc([C@H]4CC[C@H](NC(=O)c5cnccn5)CC4)cc3)c[nH]2)c2ccccc2)C1 | 2.1 | 0.028 | 462 (≈ 350 µg/mL) | 2.1 |  |  |  |  |  |  | 
2 | CC(C)(C)C#CCOC(=O)N[C@@H]1CCN(C(=O)N[C@@H](C(=O)N2CCC[C@H]2c2nc(-c3ccc([C@H]4CC[C@H](NC(=O)c5cnc(CO)cn5)CC4)cc3)c[nH]2)c2ccccc2)C1 | 0.059 | 0.013 | 132 (≈ 110 µg/mL) | 1 | 32 | < 0.01 | < 0.01 | 0.18 | 17 | 15 | 
3 | CC#CCCOC(=O)N[C@@H]1CCN(C(=O)N[C@@H](C(=O)N2CCC[C@H]2c2nc(-c3ccc([C@H]4CC[C@H](NC(=O)c5cnccn5)CC4)cc3)c[nH]2)c2ccccc2)C1 | 3.4 | < 0.01 | 352 (≈ 272 µg/mL) | 2.1 |  |  |  |  |  |  | 
4 | COC1CCC(C(=O)N[C@H]2CC[C@H](c3ccc(-c4c[nH]c([C@@H]5CCCN5C(=O)[C@H](NC(=O)N5CC[C@@H](NC(=O)OCc6ccccc6)C5)c5ccccc5)n4)cc3)CC2)CC1 (stereo not given in full) | 0.17 | 0.019 | 193 (≈ 160 µg/mL) | < 0.1 | 1.4 |  |  |  |  |  | 
5 | CC(C)C#CCOC(=O)N[C@@H]1CCN(C(=O)N[C@@H](C(=O)N2CCC[C@H]2c2nc(-c3ccc([C@H]4CC[C@H](NC(=O)c5cnccn5)CC4)cc3)c[nH]2)c2ccccc2)C1 | 0.18 | < 0.01 | 246 (≈ 193 µg/mL) | 1.6 | 10 |  |  |  |  |  | 
6 | COC(=O)N[C@H](C(=O)N1CCC[C@H]1c1ncc(-c2ccc(-c3ccc(-c4cnc([C@@H]5CCCN5C(=O)[C@@H](NC(=O)OC)C(C)C)[nH]4)cc3)cc2)[nH]1)C(C)C [DACLATASVIR] |  |  |  |  |  | 0.071 | 0.146 | 61 | 1230 | 1260 | 0.05
7 | CCCCCOC(=O)N[C@@H]1CCN(C(=O)N[C@@H](C(=O)N2CCC[C@H]2c2nc(-c3ccc([C@H]4CC[C@H](NC(=O)c5cnccn5)CC4)cc3)c[nH]2)c2ccccc2)C1 | 0.97 | 0.0056 | 197 (≈ 153 µg/mL) | 3 | 11 |  |  |  |  |  | 
8 | CCCC#CCOC(=O)N[C@@H]1CCN(C(=O)N[C@@H](C(=O)N2CCC[C@H]2c2nc(-c3ccc([C@H]4CC[C@H](NC(=O)c5cnccn5)CC4)cc3)c[nH]2)c2ccccc2)C1 | 0.27 | 0.013 | 135 (≈ 106 µg/mL) | 1.7 |  |  |  |  |  |  | 
9 | CCC#CCOC(=O)N[C@@H]1CCN(C(=O)N[C@@H](C(=O)N2CCC[C@H]2c2nc(-c3ccc([C@H]4CC[C@H](NC(=O)c5cnccn5)CC4)cc3)c[nH]2)c2ccccc2)C1 | 0.39 | 0.018 | 336 (≈ 259 µg/mL) | 3.1 |  |  |  |  |  |  | 
10 | COC1CCC(C(=O)N[C@H]2CC[C@H](c3ccc(-c4c[nH]c([C@@H]5CCCN5C(=O)[C@H](NC(=O)N5CC[C@@H](NC(=O)OCC6CCCCC6)C5)c5ccccc5)n4)cc3)CC2)CC1 (stereo not given in full) | 0.039 | 0.016 | 108 (≈ 90.3 µg/mL) | 0.23 |  |  |  |  |  |  | 
11 | CC(C)(C)C#CCOC(=O)N[C@@H]1CCN(C(=O)N[C@@H](C(=O)N2CCC[C@H]2c2nc(-c3ccc([C@H]4CC[C@H](NC(=O)c5cnccn5)CC4)cc3)c[nH]2)c2ccccc2)C1 | 0.13 | < 0.01 | 142 (≈ 114 µg/mL) | 1.1 | 5.3 |  |  |  |  |  | 
12 | O=C(N[C@@H]1CCN(C(=O)N[C@@H](C(=O)N2CCC[C@H]2c2nc(-c3ccc([C@H]4CC[C@H](NC(=O)c5cnccn5)CC4)cc3)c[nH]2)c2ccccc2)C1)OCC1CCCCC1 | 0.35 | 0.0065 | 76 (≈ 61 µg/mL) | 0.85 | 4.9 |  |  |  |  |  | 
13 | COC1CCN(C(=O)N[C@H]2CC[C@H](c3ccc(-c4c[nH]c([C@@H]5CCCN5C(=O)[C@H](NC(=O)N5CC[C@@H](NC(=O)OCc6ccccc6)C5)c5ccccc5)n4)cc3)CC2)CC1 | 0.15 | 0.041 | 222 (≈ 184 µg/mL) | < 0.1 |  |  |  |  |  |  | 
14 | CC(C)C#CCOC(=O)N[C@@H]1CCN(C(=O)N[C@@H](C(=O)N2CCC[C@H]2c2nc(-c3ccc([C@H]4CC[C@H](NC(=O)c5cnc(CO)cn5)CC4)cc3)c[nH]2)c2ccccc2)C1 | 0.12 | 0.017 | 190 (≈ 155 µg/mL) | 1.4 | 18 |  |  |  |  |  | 
